Tests used:
[1] = tested on: HER2YF/HER3E928G (2YF/3EG) Ba/F3 cells; experiment: Ba/F3 proliferation assay, 2YF/3EG +/- NRG; format: cell-based; settings: + NRG vs no NRG
From the text: Consistent with the results in the HER2 overexpressing cell lines, CW-2 cells that harbor a HER3-activating mutation were equally sensitive to compound 3+/−NRG in both proliferation and signaling assays (FIGS. 6A-6B). […] To further evaluate the potential of compound 3 against HER2 mutants within a HER2/HER3 heterodimer we transduced wt HER3 containing Ba/F3 cells with reported HER2 oncogenic mutants in the HER2YF construct.
For HER2YF/3EG Ba/F3 cells were selected according to the protocol for the HER2YF/3TM Ba/F3's with the exception that no NRG was supplemented in the media during IL-3 independent selection.
Proliferation Assays. For adherent cell lines, cells were plated onto opaque white 96 well plates (Greiner cat #655083) and allowed to adhere overnight. The following day media was changed to fresh media that contained either DMSO or the indicated concentration of drug plus NRG (50 ng/mL final concentration) as indicated. Plates were incubated at 37° C. for 72 h and proliferation was read out using Cell Titer Glo (Promega) according to the manufacturer's protocol. For Ba/F3 cell proliferation, cells, drug dilution, and any necessary growth factors (10 ng/mL IL-3 or 6.25 ng/mL NRG) were combined in a well of a 96 well plate. Plates were incubated at 37° C. for 48 h and proliferation was read out using Cell Titer Glo according to the manufacturer's protocol. For all normalized assays, proliferation was normalized to the DMSO control condition. All graphs were plotted in GraphPad Prism 6 and fit with a non-linear regression of the log(inhibitor) vs response with a variable slope where shown. All graphs are averages (+/−standard deviation) of biological triplicates each performed in technical triplicate unless otherwise noted. If only one biological replicate was performed standard deviations were derived from the technical replicates.

[2] = tested on: HER2 and HER3 signaling in NCI-H1781 cells; experiment: HER2 and HER3 signaling in NCI-H1781 cells (immunoblot); format: cell-based; settings: NCI-H1781 cells (HER2 kinase domain insertion); 15 min after drug
Procedure: Immunoblotting. Cells were grown in 6 well plates and treated according to the indicated conditions at which point the media was aspirated, cells were washed with 1 mL of cold PBS, which was then aspirated and the plates were frozen at −80° C. The frozen cells were thawed on the plates in a buffer containing 50 mM Tris pH 7.5, 150 mM NaCl, 1 mM EDTA, and 1% Triton X-100 supplemented with 1× phosphatase (PhoSTOP, Roche) and 1× protease (complete-mini tablets, Roche) inhibitors. Lysates were scraped, transferred to Eppendorf tubes, and cleared by centrifugation at 20,000×g for 20 min at 4° C. The clarified lysates were transferred to chilled, clean tubes, and normalized for protein concentration by Bradford (Bio-Rad). The normalized lysates were diluted with Laemmli loading buffer, and 10 μg of total protein was run on a 4-12% gradient gel (Invitrogen), which was then transferred to […] nitrocellulose (Bio-Rad) and analyzed using the indicated primary antibodies according to the manufacturer's recommendations. Primary antibodies were detected using IRDye secondary antibodies (Li-Cor) according to the manufacturer's recommendations and scanned on an Odyssey imager (Li-Cor). Scanned images were cropped and assembled in Adobe Illustrator 6.

EGFR = EGFR (Homo sapiens, UniProt P00533); experiment: Nanosyn in vitro kinase profiling: EGFR; format: biochemical; settings: for inhibition at 1 µM: compound at 1 μM
Procedure: (§1) This was confirmed by in vitro profiling against a panel of kinases, with compound 2 only showing potent inhibition of EGFR and Ab1 (Table 2).
(§2) In vitro Kinome Screen. In vitro profiling of compound 2 at 100 nM was conducted by Nanosyn.

AURORA-A = target: T1, AURORA-A (Homo sapiens, UniProt O14965); experiment: Nanosyn in vitro kinase profiling: AURORA-A; format: biochemical; settings: for inhibition at 1 µM: compound at 1 μM
T1 sequence (O14965 1-403): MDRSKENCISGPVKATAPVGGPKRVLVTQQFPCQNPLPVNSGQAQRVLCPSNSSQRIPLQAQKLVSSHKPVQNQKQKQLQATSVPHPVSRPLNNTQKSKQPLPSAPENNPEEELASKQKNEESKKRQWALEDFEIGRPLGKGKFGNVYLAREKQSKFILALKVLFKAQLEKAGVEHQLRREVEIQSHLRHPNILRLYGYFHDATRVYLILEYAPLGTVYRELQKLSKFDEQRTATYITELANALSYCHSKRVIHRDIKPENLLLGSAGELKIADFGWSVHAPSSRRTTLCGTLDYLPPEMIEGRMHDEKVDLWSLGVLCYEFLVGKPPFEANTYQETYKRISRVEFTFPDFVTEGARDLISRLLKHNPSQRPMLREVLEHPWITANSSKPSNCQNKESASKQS
Procedure: as §1, §2

IRAK4 = target: T2, IRAK4 (Homo sapiens, UniProt Q9NWZ3); experiment: Nanosyn in vitro kinase profiling: IRAK4; format: biochemical; settings: for inhibition at 1 µM: compound at 1 μM
T2 sequence (Q9NWZ3 1-460): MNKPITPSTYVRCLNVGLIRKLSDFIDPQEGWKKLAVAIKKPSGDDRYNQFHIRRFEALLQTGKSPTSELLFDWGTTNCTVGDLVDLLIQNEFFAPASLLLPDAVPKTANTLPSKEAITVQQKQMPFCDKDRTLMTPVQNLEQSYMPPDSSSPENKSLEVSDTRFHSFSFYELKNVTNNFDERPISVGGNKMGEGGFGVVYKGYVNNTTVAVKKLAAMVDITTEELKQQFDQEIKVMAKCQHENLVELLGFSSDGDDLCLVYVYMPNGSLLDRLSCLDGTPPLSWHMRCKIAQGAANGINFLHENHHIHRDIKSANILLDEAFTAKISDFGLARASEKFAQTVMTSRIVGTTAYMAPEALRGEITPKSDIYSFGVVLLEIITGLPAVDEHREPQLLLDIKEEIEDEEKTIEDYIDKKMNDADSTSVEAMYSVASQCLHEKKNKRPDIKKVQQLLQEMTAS
Procedure: as §1, §2

CHEK1 = target: T3, CHEK1 (Homo sapiens, UniProt O14757); experiment: Nanosyn in vitro kinase profiling: CHEK1; format: biochemical; settings: for inhibition at 1 µM: compound at 1 μM
T3 sequence (O14757 1-476): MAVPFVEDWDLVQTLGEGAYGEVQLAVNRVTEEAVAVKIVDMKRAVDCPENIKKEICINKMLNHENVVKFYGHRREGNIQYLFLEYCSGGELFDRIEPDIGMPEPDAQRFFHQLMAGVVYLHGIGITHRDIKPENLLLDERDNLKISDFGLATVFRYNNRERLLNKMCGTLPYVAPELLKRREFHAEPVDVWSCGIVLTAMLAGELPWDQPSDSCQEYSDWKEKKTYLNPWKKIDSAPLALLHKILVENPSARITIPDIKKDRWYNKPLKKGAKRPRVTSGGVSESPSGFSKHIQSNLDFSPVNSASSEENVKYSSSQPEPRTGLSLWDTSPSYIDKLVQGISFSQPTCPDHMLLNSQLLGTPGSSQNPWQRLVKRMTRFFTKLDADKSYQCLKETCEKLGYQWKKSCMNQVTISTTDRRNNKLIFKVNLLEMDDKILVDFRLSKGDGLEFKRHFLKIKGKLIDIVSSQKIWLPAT
Procedure: as §1, §2

Sequence of EGFR (P00533 25-1210): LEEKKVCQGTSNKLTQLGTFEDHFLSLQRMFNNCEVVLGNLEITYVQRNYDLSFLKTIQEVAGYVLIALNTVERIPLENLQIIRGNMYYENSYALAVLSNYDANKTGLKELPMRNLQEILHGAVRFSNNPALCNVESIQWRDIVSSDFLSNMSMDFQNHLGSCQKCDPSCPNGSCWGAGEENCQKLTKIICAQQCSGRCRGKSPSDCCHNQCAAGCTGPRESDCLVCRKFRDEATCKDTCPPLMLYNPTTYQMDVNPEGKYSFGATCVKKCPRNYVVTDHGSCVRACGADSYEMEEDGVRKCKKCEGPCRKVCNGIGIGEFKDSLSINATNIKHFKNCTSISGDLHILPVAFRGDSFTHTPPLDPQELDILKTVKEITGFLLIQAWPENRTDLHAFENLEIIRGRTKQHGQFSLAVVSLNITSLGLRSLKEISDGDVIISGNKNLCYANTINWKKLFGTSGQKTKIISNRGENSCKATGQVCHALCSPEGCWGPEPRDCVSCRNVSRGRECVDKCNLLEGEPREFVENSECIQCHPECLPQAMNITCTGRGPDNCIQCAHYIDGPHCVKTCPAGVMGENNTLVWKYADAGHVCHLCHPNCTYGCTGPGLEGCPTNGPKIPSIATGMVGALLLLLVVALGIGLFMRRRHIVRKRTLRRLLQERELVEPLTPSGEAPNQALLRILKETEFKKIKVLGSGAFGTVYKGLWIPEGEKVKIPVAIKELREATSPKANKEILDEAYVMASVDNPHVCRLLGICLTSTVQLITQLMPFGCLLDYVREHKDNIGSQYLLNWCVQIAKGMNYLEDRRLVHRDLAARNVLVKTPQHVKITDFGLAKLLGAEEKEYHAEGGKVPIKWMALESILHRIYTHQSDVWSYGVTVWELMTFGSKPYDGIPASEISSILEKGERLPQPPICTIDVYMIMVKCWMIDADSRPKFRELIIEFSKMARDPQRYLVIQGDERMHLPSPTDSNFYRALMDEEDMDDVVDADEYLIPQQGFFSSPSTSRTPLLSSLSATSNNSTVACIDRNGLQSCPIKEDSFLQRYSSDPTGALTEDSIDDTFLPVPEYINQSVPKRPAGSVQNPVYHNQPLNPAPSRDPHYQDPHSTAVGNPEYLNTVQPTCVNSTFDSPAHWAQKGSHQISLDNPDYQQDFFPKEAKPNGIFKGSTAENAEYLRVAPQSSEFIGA

inhibition at 1 µM (EGFR) [%] | inhibition at 1 µM (AURORA-A) [%] | inhibition at 1 µM (IRAK4) [%] | inhibition at 1 µM (CHEK1) [%] | inhibition at 0.1 µM (EGFR; compound at 100 nM) [%] | inhibition at 0.1 µM (AURORA-A; compound at 100 nM) [%] | inhibition at 0.1 µM (IRAK4; compound at 100 nM) [%] | inhibition at 0.1 µM (CHEK1; compound at 100 nM) [%] | Compound | reduction of sensitivity on addition of NRG [1] | inhibition of HER2/HER3 signaling [2]
 |  |  |  |  |  |  |  | CS(=O)(=O)CCNCc1ccc(-c2ccc3ncnc(Nc4ccc(OCc5cccc(F)c5)c(Cl)c4)c3c2)o1 [lapatinib] | 55 fold | unable to fully inhibit signaling
99 | 31 | 34 | 10 |  |  |  |  | COc1ccc(-c2ccoc2)cc1Nc1ncnc2[nH]cc(-c3cc[nH]n3)c12 [compound 3, N-(5-(furan-3-yl)-2-methoxyphenyl)-5-(1H-pyrazol-3-yl)-7H-pyrrolo[2,3-d]pyrimidin-4-amine] | less than 5 fold | rapidly and fully inhibited
96.9 | 47.2 | 1.42 | 2.27 | 95.6 | 9.95 | 1.47 | 0.965 | COc1ccc(-c2ccco2)cc1Nc1ncnc2[nH]nc(-c3ccco3)c12 [compound 2, 3-(furan-2-yl)-N-(5-(furan-2-yl)-2-methoxyphenyl)-1H-pyrazolo[3,4-d]pyrimidin-4-amine] |  | 
